According to PMC8550792, “Evolution of kinase polypharmacology across HSP90 drug discovery” (Cell Chemical Biology, 2021):

How the values were obtained:
Assay in all cases: biochemical
Assay type in all cases: biochemical
382 unique human kinases [1] = molecular target: T1, 382 unique human kinases (Homo sapiens, UniProt P08581, Y1230H); conditions: c-MET (Y1230H), 10 uM; for remaining activity at 10 µM: read-out: % Enzyme Activity (relative to DMSO controls)
T1 construct: purchased Reaction Biology (HotSpot contract assay)

382 unique human kinases [2] = molecular target: T2, 382 unique human kinases (Homo sapiens, UniProt P10721, D820Y); conditions: c-Kit (D820Y), 10 uM; for remaining activity at 10 µM: read-out: % Enzyme Activity (relative to DMSO controls)
T2 construct: purchased Reaction Biology (HotSpot contract assay)

382 unique human kinases [3] = molecular target: T3, 382 unique human kinases (Homo sapiens, UniProt P12931, T341M); conditions: kinase c-Src (T341M), compound 10 uM; for remaining activity at 10 µM: read-out: % Enzyme Activity (relative to DMSO controls)
T3 construct: purchased Reaction Biology (HotSpot contract assay)

382 unique human kinases [4] = molecular target: T4, 382 unique human kinases (Homo sapiens, UniProt Q15835); conditions: GRK1, 10 uM; for remaining activity at 10 µM: read-out: % Enzyme Activity (relative to DMSO controls)
T4 construct: purchased Reaction Biology (HotSpot contract assay)
T4 sequence (Q15835 1-563): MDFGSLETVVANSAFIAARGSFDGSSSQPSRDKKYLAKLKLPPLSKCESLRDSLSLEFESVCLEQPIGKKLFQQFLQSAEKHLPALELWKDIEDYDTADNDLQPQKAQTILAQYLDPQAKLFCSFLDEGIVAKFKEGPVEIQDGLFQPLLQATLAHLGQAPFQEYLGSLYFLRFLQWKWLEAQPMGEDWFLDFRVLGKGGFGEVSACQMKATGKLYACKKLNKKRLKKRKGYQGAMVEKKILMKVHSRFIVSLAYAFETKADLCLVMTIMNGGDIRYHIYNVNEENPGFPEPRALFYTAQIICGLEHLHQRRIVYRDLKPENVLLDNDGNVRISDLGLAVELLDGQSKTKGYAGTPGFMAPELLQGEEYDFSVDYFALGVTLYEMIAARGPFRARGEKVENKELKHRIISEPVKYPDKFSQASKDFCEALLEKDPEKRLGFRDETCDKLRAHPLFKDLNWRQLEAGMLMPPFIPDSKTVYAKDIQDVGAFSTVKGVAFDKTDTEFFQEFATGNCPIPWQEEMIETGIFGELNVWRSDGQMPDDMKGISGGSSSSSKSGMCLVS

382 unique human kinases [5] = molecular target: 382 unique human kinases (Homo sapiens, UniProt Q9H1R3); conditions: kinase MLCK2/MYLK2, compound 10 uM; for remaining activity at 10 µM: read-out: % Enzyme Activity (relative to DMSO controls)
382 unique human kinases [6] = molecular target: T5, 382 unique human kinases (Homo sapiens, UniProt O60674); conditions: JAK2, [ATP] 2.5 µM, compound 10 uM; for remaining activity at 10 µM: read-out: % Enzyme Activity (relative to DMSO controls)
T5 construct: purchased Reaction Biology (HotSpot contract assay)

382 unique human kinases [7] = molecular target: T6, 382 unique human kinases (Homo sapiens, UniProt P29317); conditions: EPHA2, [ATP] 50 µM, compound 10 uM; for remaining activity at 10 µM: read-out: % Enzyme Activity (relative to DMSO controls)
T6 construct: purchased Reaction Biology (HotSpot contract assay)

382 unique human kinases [8] = molecular target: T7, 382 unique human kinases (Homo sapiens, UniProt P29323); conditions: EPHB2, [ATP] 30 µM, compound 10 uM; for remaining activity at 10 µM: read-out: % Enzyme Activity (relative to DMSO controls)
T7 construct: purchased Reaction Biology (HotSpot contract assay)
T7 sequence (P29323 19-1055): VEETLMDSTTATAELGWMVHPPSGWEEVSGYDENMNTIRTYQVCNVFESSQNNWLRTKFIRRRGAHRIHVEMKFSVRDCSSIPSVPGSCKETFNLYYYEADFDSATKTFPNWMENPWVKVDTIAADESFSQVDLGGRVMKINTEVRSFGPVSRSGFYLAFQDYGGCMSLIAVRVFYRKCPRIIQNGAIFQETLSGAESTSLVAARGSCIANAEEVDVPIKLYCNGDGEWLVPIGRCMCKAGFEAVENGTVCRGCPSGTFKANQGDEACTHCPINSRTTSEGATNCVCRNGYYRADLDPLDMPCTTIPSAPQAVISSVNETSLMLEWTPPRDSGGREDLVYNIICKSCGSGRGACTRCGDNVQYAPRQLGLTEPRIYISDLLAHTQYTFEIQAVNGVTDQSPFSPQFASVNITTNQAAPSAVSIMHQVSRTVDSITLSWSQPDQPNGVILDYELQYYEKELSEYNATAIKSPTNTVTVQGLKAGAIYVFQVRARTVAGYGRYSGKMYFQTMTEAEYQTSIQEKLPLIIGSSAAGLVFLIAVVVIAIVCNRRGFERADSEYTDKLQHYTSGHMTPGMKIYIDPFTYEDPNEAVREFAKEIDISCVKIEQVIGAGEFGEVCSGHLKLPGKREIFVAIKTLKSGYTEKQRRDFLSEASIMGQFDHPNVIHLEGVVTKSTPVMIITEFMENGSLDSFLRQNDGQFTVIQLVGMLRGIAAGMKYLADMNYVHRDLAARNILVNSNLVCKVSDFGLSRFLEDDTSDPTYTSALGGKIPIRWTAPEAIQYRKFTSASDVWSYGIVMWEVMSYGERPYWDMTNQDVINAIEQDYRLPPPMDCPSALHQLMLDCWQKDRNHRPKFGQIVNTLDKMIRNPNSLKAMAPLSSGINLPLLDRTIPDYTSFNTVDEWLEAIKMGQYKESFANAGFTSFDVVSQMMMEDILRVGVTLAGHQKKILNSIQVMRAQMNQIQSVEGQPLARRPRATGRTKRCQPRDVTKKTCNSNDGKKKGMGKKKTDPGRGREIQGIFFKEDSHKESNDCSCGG

382 unique human kinases [9] = molecular target: T8, 382 unique human kinases (Homo sapiens, UniProt P41279); conditions: COT1/MAP3K8, 10 uM; for remaining activity at 10 µM: read-out: % Enzyme Activity (relative to DMSO controls)
T8 construct: purchased Reaction Biology (HotSpot contract assay)

382 unique human kinases [10] = molecular target: T9, 382 unique human kinases (Homo sapiens, UniProt Q52WX2); conditions: SBK1, 10 uM; for remaining activity at 10 µM: read-out: % Enzyme Activity (relative to DMSO controls)
T9 construct: purchased Reaction Biology (HotSpot contract assay)

382 unique human kinases [11] = molecular target: T10, 382 unique human kinases (Homo sapiens, UniProt Q9HC98); conditions: NEK6, 10 uM; for remaining activity at 10 µM: read-out: % Enzyme Activity (relative to DMSO controls)
T10 construct: purchased Reaction Biology (HotSpot contract assay)
T10 sequence (Q9HC98 whole entry): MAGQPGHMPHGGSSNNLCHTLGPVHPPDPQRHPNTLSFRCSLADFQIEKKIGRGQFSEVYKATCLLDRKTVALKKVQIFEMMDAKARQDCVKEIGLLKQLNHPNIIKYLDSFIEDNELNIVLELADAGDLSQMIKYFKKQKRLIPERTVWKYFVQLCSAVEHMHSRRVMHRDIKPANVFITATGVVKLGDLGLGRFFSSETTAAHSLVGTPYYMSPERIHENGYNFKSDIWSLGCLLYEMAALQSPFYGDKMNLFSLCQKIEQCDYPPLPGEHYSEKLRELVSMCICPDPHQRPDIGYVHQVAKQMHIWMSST

382 unique human kinases (Homo sapiens, UniProt Q9H1R3), sequence (Q9H1R3 whole entry): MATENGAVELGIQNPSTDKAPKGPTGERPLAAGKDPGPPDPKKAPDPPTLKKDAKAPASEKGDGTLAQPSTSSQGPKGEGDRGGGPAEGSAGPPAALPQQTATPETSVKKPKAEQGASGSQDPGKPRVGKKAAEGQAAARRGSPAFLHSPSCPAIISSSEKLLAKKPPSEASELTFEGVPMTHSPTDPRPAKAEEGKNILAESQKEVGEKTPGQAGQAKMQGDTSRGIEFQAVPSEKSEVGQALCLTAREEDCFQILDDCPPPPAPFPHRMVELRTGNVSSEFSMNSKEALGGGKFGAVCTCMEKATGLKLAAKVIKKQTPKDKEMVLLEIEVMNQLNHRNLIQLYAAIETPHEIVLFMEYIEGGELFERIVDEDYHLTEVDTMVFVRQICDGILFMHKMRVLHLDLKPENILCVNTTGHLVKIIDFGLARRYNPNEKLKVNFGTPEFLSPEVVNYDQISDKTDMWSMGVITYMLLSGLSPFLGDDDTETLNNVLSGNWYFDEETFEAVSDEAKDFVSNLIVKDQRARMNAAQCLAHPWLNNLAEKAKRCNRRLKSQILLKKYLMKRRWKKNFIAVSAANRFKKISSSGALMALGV
T6 sequence (P29317 24-976): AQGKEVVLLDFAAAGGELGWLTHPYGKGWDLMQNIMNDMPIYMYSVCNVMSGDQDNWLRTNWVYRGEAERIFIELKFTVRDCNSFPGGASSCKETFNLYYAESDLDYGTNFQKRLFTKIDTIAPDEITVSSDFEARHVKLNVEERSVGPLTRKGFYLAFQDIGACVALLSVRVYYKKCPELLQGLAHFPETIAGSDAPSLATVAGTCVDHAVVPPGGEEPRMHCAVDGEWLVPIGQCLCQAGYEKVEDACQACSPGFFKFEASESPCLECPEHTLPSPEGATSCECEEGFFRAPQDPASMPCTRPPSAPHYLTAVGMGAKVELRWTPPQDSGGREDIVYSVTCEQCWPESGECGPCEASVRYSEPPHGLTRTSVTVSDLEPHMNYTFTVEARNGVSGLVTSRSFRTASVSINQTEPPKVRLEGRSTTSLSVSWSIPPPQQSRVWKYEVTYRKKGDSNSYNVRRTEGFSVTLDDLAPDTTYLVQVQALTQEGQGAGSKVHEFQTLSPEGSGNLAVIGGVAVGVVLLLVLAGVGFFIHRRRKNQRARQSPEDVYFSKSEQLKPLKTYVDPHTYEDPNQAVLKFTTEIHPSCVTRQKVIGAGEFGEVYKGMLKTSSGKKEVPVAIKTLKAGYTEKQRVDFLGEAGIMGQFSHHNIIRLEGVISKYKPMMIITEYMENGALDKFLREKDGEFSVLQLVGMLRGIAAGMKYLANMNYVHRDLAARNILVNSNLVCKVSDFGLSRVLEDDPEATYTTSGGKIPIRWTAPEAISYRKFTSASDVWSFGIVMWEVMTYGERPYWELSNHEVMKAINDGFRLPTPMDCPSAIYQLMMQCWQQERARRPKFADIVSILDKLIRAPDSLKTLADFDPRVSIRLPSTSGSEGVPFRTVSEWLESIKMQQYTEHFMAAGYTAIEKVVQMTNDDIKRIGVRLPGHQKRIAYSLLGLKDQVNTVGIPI
T9 sequence (Q52WX2 whole entry): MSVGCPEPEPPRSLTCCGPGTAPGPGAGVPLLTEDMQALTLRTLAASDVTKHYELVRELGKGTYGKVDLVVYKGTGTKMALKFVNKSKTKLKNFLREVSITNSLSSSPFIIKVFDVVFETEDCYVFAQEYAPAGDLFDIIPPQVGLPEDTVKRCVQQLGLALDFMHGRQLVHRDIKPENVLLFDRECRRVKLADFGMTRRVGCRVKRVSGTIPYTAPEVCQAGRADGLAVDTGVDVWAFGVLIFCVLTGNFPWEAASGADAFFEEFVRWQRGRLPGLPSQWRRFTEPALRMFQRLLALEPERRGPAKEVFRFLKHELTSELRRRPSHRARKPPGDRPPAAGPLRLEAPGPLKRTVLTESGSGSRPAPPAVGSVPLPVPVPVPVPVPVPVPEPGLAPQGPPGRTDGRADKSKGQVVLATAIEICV
T5 sequence (O60674 whole entry): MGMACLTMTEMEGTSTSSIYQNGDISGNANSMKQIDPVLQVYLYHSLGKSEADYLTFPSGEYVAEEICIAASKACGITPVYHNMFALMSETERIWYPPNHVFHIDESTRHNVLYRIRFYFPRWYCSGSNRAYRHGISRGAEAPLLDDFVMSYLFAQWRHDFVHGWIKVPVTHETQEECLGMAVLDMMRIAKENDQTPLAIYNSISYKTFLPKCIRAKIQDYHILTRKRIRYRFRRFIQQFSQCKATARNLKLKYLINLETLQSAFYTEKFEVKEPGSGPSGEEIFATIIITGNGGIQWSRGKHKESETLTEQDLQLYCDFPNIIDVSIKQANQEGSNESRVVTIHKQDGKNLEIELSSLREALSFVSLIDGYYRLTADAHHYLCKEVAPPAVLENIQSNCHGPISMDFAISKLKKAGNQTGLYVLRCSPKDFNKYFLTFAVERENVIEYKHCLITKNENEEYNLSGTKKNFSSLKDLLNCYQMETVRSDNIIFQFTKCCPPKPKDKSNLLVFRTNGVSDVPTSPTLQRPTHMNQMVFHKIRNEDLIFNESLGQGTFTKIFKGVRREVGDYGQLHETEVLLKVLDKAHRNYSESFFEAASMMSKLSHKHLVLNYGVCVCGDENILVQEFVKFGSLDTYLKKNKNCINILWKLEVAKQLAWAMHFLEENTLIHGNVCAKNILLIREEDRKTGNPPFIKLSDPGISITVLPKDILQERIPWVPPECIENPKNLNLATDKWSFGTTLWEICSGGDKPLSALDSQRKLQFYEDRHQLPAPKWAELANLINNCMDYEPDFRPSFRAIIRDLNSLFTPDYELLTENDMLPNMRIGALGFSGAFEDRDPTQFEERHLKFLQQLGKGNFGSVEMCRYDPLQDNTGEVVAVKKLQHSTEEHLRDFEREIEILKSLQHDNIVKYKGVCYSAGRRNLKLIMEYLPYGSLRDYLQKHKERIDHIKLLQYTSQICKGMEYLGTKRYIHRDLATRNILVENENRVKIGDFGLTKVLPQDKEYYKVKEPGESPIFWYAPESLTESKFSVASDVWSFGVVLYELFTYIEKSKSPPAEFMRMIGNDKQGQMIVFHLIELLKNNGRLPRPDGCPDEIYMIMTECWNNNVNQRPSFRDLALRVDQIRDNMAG
T2 sequence (P10721 26-976 D820Y): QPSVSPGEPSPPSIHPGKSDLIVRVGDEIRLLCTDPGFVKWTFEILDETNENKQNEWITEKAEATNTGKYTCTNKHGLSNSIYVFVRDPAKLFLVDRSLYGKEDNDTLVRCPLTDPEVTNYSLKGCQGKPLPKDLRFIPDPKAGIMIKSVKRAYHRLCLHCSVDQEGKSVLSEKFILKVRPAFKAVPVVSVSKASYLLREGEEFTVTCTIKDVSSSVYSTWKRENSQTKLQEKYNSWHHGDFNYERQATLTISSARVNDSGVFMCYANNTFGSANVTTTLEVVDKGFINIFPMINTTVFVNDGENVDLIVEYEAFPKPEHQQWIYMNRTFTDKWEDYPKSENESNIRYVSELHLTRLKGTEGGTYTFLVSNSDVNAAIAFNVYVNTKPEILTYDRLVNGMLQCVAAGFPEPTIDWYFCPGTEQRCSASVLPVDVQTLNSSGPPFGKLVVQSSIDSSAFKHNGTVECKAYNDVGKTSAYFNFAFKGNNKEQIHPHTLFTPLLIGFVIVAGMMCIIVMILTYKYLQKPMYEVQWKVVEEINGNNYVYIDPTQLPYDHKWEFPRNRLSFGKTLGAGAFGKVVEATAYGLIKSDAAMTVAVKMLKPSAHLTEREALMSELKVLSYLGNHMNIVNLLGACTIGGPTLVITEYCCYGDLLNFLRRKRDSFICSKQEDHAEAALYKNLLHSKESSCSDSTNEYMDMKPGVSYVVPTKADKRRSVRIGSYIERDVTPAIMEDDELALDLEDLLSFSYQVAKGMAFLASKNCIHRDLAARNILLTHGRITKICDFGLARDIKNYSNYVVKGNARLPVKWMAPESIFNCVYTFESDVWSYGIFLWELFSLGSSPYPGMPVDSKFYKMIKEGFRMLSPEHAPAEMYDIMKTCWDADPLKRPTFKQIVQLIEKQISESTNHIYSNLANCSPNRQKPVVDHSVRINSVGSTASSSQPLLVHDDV
T8 sequence (P41279 whole entry): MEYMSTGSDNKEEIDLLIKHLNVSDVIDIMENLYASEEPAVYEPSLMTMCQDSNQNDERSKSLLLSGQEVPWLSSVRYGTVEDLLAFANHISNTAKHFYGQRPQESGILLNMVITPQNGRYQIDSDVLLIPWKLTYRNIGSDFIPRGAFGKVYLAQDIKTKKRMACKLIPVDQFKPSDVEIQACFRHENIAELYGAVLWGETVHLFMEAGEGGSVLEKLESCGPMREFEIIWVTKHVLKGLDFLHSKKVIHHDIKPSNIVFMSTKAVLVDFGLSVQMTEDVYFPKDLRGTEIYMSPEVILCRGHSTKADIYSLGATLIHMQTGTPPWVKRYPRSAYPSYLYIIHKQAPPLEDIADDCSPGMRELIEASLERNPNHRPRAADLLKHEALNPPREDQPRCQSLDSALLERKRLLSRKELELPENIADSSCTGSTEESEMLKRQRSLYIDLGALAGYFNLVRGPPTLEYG

| SMILES | remaining activity at 10 µM (382 unique human kinases [1]) | remaining activity at 10 µM (382 unique human kinases [2]) | remaining activity at 10 µM (382 unique human kinases [3]) | remaining activity at 10 µM (382 unique human kinases [4]) | remaining activity at 10 µM (382 unique human kinases [5]) | remaining activity at 10 µM (382 unique human kinases [6]) | remaining activity at 10 µM (382 unique human kinases [7]) | remaining activity at 10 µM (382 unique human kinases [8]) | remaining activity at 10 µM (382 unique human kinases [9]) | remaining activity at 10 µM (382 unique human kinases [10]) | remaining activity at 10 µM (382 unique human kinases [11]) | other results |
| --- | --- | --- | --- | --- | --- | --- | --- | --- | --- | --- | --- | --- |
| CC(C)c1cc(-c2n[nH]c(=O)n2-c2ccc3c(ccn3C)c2)c(O)cc1O [Ganetespib (STA9090)] | 108% | 62.7% | 86.3% | 76% | 80.2% |  |  |  |  |  |  |  |
| CC(C)c1cc(-c2n[nH]c(=O)n2-c2ccc3c(ccn3C)c2)c(O)cc1O [Ganetespib] |  |  |  |  |  | 57.1% | 43.5% | 45.3% | 116% | 99.8% | 107% |  |
| CCNC(=O)c1noc(-c2cc(C(C)C)c(O)cc2O)c1-c1ccc(CN2CCOCC2)cc1 [Luminespib (AUY-922)] | 79.7% | 71.4% | 98.3% | 85.9% | 95.1% |  |  |  |  |  |  | % Enzyme Activity (relative to DMSO controls) (382 unique human kinases [1]): 78.17%; % Enzyme Activity (relative to DMSO controls) (382 unique human kinases [2]): 70.30%; % Enzyme Activity (relative to DMSO controls) (382 unique human kinases [3]): 97.19%; % Enzyme Activity (relative to DMSO controls) (382 unique human kinases [4]): 85.44%; % Enzyme Activity (relative to DMSO controls) (382 unique human kinases [5]): 91.17% |
| CCNC(=O)c1noc(-c2cc(C(C)C)c(O)cc2O)c1-c1ccc(CN2CCOCC2)cc1 [Luminespib] |  |  |  |  |  | 99.6% | 92.4% | 63.2% | 95.4% | 94.6% | 95.4% | % Enzyme Activity (relative to DMSO controls) (382 unique human kinases [6]): 97.09%; % Enzyme Activity (relative to DMSO controls) (382 unique human kinases [7]): 92.01%; % Enzyme Activity (relative to DMSO controls) (382 unique human kinases [8]): 61.81%; % Enzyme Activity (relative to DMSO controls) (382 unique human kinases [9]): 93.56%; % Enzyme Activity (relative to DMSO controls) (382 unique human kinases [10]): 93.40%; % Enzyme Activity (relative to DMSO controls) (382 unique human kinases [11]): 94.17% |
